# In patent publication US20220211861A1, “DRUG CONJUGATES AND METHODS OF USING SAME” (The Board of Trustees of the Leland Staford Junior …, priority 2019, published 2022):
# *1 amine or outer side, *2 acyl side, *3 side chain or, on linkers, in order; H or OH if unused. Where a SMILES comes first, the peptide text is derived from it. Bridges are numbered along the chain shown (N, C = ends). Roman numbers before positions name the chains, in order. [ ]: non-standard residue; d: D form. The star is where a group is joined. X1 = O=C([C@H](CCCn1nnc2c1-c1ccccc1CN([*:3])c1ccccc1-2)N[*:1])[*:2]; Dolaproine = CO[C@@H]([C@@H]1CCCN1)[C@@H](C)C(=O)O; X3 = O=C(CCC(=O)[*:1])NCCOCCOCCOCCC(=O)[*:2]; Dil = CC[C@H](C)[C@H](NC)[C@@H](CC(=O)O)OC; PABC = O=C(OCc1ccc(N[*:1])cc1)[*:2]; X2 = C[C@@H](N*)[C@@H](O)c1ccccc1; Cit = NC(=O)NCCC[C@H](N)C(=O)O; NMeV = CN[C@H](C(=O)O)C(C)C
# Columns and labels:
# [1] = test system: RFP-expressing U87MG cells; assay: Inhibition of cell proliferation and cytotoxicity over time (IncuCyte, SYTOX green); assay type: cell-based; settings: only 3 h of exposure
# Method: To assess the activity of each drug conjugate in a model more representative of in vivo therapy, a similar assay was set up incubating RFP-expressing U87MG cells with SYTOX green and imaging every 4 h. After several time points, cells were washed and media was replaced with either fresh, drug-containing media or fresh, drug-free media (FIG. 14). All conjugates maintained high potency and inhibited proliferation after only 24 h exposure (FIG. 14B). […] The inhibition of cellular proliferation mirrored the measured cytotoxicity. All conjugates induced nearly 100% cell death when incubated without washing, with a wash of drug-containing media, or with washing after 24 h (FIG. 14D, 14E). Each construct was also evaluated under an even more stringent condition, with washing after 3 h of exposure. […] KFDC and KADC experienced substantial reductions in their respective potencies and each inhibited ˜50% of cell proliferation.
# RFP-expressing U87MG cells were seeded in a 96-well plate (Corning) at a density of 2.5×10^3 cells per well and grown overnight. Cells were then treated with 200 μL of fresh media containing 10 nM Cytox Green (ThermoFisher) and KDC, KFDC, KADC, or MMAE, at the approximate ED50 of 10 nM or at the saturating concentration of 100 nM. Cells were incubated in an IncuCyte S3 Live-Cell Analysis System for 5 d with images collected every 4 h. […]
# [2] = Liver and kidney histology (H&E) of treated mice; assay type: in vivo; settings: scored by independent pathologist, after the 60-day experiment
# Source text: Despite the impressive in vivo efficacy of the KDCs, there are potential concerns of acute toxicity given its rapid renal filtration and high molar dose of MMAE. […] After the 60-day experiment, livers and kidneys were harvested from treated mice, fixed in 4% paraformaldehyde (PFA), then embedded in paraffin blocks for tissue sectioning. Sections were stained with hematoxylin and eosin to visualize cellular structures and scored by an independent pathologist for evidence of acute toxicity. Representative images shown in FIG. 26 were all free from indicators of toxicity and all samples were scored identically to healthy mice.
# U87MG tumor spheroids = assay: Endpoint spheroid killing assay (SYTOX green, plate reader); assay type: cell-based; settings: 100 nM
# Method: (§1) Next, this in vitro model was modified to test if similar cell killing could be visualized in addition to confocal imaging experiments. Spheroids were treated with drug conjugates or MMAE at a range of concentrations. After incubating with drug conjugates for 5 d, media was replaced with fresh media containing SYTOX green. Fluorescence measured by a BioTek Synergy H4 microtiter plate reader was compared to spheroids treated with lysis buffer. […] To visualize this killing over time, spheroids treated with 50 or 100 nM of drug conjugates or MMAE were imaged every 4 h using an IncuCyte.
# Spheroids of U87MG cells were formed by seeding round-bottom, 96-well ultra-low adhesion plates (Corning) with 4×10^3 cells/well and centrifuging at 1000×g for 10 minutes. Spheroids were grown for 2 days before replacing media with 200 μL of fresh media containing 10 nM Cytox Green (ThermoFisher) and a range of concentrations of KDC, KFDC, KADC, or MMAE. After 4 d, trypsin-EDTA was added and cells were placed on a 60 RPM shaker for 10 min to disrupt spheroids. Green fluorescence was measured using was measured with a BioTek Synergy H4 microtiter plate reader. Percent toxicity was calculated by comparing green fluorescence to spheroids treated with lysis buffer.
# [3] = test system: RFP-expressing U87MG tumor spheroids; assay: Cell spheroid killing assay over time (IncuCyte); assay type: cell-based
# Method: as §1
# Spheroids of RFP-expressing U87MG cells were formed by seeding round-bottom, 96-well ultra-low adhesion plates (Corning) with 4×10^3 cells/well and centrifuging at 1000×g for 10 minutes. Spheroids were grown for 2 days before replacing media with 200 μL of fresh media containing 10 nM Cytox Green (ThermoFisher) and 0, 50, or 100 nM KDC, KFDC, KADC, or MMAE. Spheroids were incubated in an IncuCyte S3 Live-Cell Analysis System for 5 d with images collected every 4 h.
smiles,measurement,setting,value
"CC[C@H](C)[C@@H]([C@@H](CC(=O)N1CCC[C@H]1[C@H](OC)[C@@H](C)C(=O)N[C@H](C)[C@@H](O)c1ccccc1)OC)N(C)C(=O)[C@@H](NC(=O)[C@H](C(C)C)N(C)C(=O)OCc1ccc(NC(=O)[C@H](CCCNC(N)=O)NC(=O)[C@@H](NC(=O)CCOCCOCCOCCNC(=O)CCC(=O)N2Cc3ccccc3-c3c(nnn3CCC[C@@H]3NC(=O)[C@@H]4CSSC[C@@H]5NC(=O)[C@H](C(C)C)NC(=O)[C@H](CSSC[C@H](NC(=O)CN)C(=O)N6CCC[C@H]6C(=O)N[C@@H](CCCNC(=N)N)C(=O)N6CCC[C@H]6C(=O)N[C@@H](CCCNC(=N)N)C(=O)NCC(=O)N[C@@H](CC(=O)O)C(=O)N[C@@H](CC(N)=O)C(=O)N6CCC[C@H]6C(=O)N6CCC[C@H]6C(=O)N[C@@H](CC(C)C)C(=O)N[C@@H]([C@@H](C)O)C(=O)N4)NC(=O)CNC(=O)[C@H](C)NC(=O)[C@H](CC(C)C)NC(=O)[C@H](CSSC[C@@H](C(=O)NCC(N)=O)NC(=O)[C@H](Cc4ccc(O)cc4)NC(=O)CNC(=O)[C@H](CC(N)=O)NC(=O)[C@@H]4CCCN4C(=O)CNC5=O)NC(=O)[C@H](CC(=O)O)NC(=O)[C@H](CO)NC(=O)[C@H](CC(=O)O)NC(=O)[C@H](CCC(N)=O)NC3=O)-c3ccccc32)C(C)C)cc1)C(C)C [KDC] (I: H-GCPRPRGDNPPLTC[X1]QDSDCLAGCVCGPNGYCG-NH2 / II: V[Cit][PABC][NMeV]V[Dil][Dolaproine]-X2; disulfide I:2-I:24, I:14-I:26, I:20-I:32; linker I:15-II:N via X3; N-terminus assumed)",inhibition of proliferation,[1],complete cell inhibition
same,"liver and kidney histology, acute toxicity",[2],no evidence of acute toxicity
same,spheroid killing,U87MG tumor spheroids,"substantially more killing than KFDC, KADC, or MMAE"
same,spheroid toxicity,"[3]; 50 or 100 nM, imaged every 4 h",~100%
same,potency when co-administered with unconjugated knottin,[3]; drug conjugate plus unconjugated knottin,equivalently effective with or without addition of unconjugated knottin
